PubChem BioAssay AID270 (DTP/NCI, 2004)
Where “and” joins values, the source holds several entries; their conditions need not be identical. Equal entries are not always repeated. Records with an inconclusive call do not appear.

Test system: BDF1 mice, s.c. Lewis lung carcinoma, T/C %
Experiment: NCI In Vivo Anticancer Drug Screen. Data for tumor model Lewis Lung Carcinoma (subcutaneous) in B6D2F1 (BDF1) mice
In short: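 First, mice carry a transplantable tumor. Next, groups receive either compound or vehicle. Finally, survival or tumor dimensions in the dosed animals are divided by the corresponding control figure.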

[1] = endpoint: mean tumor weight, dose: 100.0 mg/kg/injection, schedule: Q01DX011 (ip), vehicle: carboxymethylcellulose (CMC), higher = larger tumour
[2] = endpoint: mean tumor weight, dose: 0.5 mg/kg/injection, schedule: Q01DX011 (ip), vehicle: saline, higher = larger tumour

Structure (SMILES): Nc1nc(N)c(N=O)c(Nc2ccc(Cl)c(Cl)c2)n1
- T/C [1]: 23 % of control and 32 % of control
- T/C (endpoint: mean tumor weight, dose: 200.0 mg/kg/injection, schedule: Q01DX011 (ip), vehicle: carboxymethylcellulose (CMC), higher = larger tumour): 31 % of control and 52 % of control
- T/C (endpoint: mean tumor weight, dose: 400.0 mg/kg/injection, schedule: Q01DX011 (ip), vehicle: carboxymethylcellulose (CMC), higher = larger tumour): 32 % of control and 46 % of control

Structure (SMILES): N/C(CCSc1ccccc1N=Cc1ccccc1O)=N/O
- T/C (endpoint: median survival time, dose: 3.13 mg/kg/injection, schedule: Q01DX009 (ip), vehicle: olive oil, sesame oil, peanut oil, higher = longer survival): 87 % of control

Structure (SMILES): CC(=O)[C@H]1CC[C@H]2[C@@H]3CC[C@@H]4CC(=O)CC[C@]4(C)[C@H]3[C@@H]3O[C@@H]3[C@]12C
- T/C (endpoint: mean tumor weight, dose: 37.0 mg/kg/injection, schedule: Q01DX011 (ip), vehicle: other, higher = larger tumour): 150 % of control
- T/C (endpoint: mean tumor weight, dose: 55.0 mg/kg/injection, schedule: Q01DX011 (ip), vehicle: other, higher = larger tumour): 99 % of control
- T/C (endpoint: mean tumor weight, dose: 83.0 mg/kg/injection, schedule: Q01DX011 (ip), vehicle: other, higher = larger tumour): 108 % of control
- T/C (endpoint: mean tumor weight, dose: 250.0 mg/kg/injection, schedule: Q01DX011 (ip), vehicle: other, higher = larger tumour): 122 % of control

Structure (SMILES): Oc1ccc(Nc2ccnc3cc(Cl)ccc23)cc1CN(CCCl)CCCl
- T/C (endpoint: median survival time, dose: 2.5 mg/kg/injection, schedule: Q01DX009 (ip), vehicle: saline, higher = longer survival): 108 % of control

Structure (SMILES): C1CN1c1nc(N2CC2)nc(N2CC2)n1
- T/C (endpoint: mean tumor weight, dose: 0.25 mg/kg/injection, schedule: Q01DX011 (ip), vehicle: saline, higher = larger tumour): 72 % of control and 80 % of control
- T/C [2]: 44 % of control and 46 % of control
- T/C (endpoint: median survival time, dose: 0.05 mg/kg/injection, schedule: Q01DX009 (ip), vehicle: saline, higher = longer survival): 96 % of control and 113 % of control
- T/C (endpoint: median survival time, dose: 0.1 mg/kg/injection, schedule: Q01DX009 (ip), vehicle: saline, higher = longer survival): 92 % of control and 106 % of control
- T/C (endpoint: median survival time, dose: 0.12 mg/kg/injection, schedule: Q01DX009 (ip), vehicle: saline, higher = longer survival): 118 % of control
- T/C (endpoint: median survival time, dose: 0.13 mg/kg/injection, schedule: Q01DX009 (ip), vehicle: saline, higher = longer survival): 90 % of control
- T/C (endpoint: median survival time, dose: 0.2 mg/kg/injection, schedule: Q01DX009 (ip), vehicle: saline, higher = longer survival): 100 % of control
- T/C (endpoint: median survival time, dose: 0.4 mg/kg/injection, schedule: Q01DX009 (ip), vehicle: saline, higher = longer survival): 89 % of control and 104 % of control
- T/C (endpoint: median survival time, dose: 0.5 mg/kg/injection, schedule: Q01DX009 (ip), vehicle: saline with Tween-80, higher = longer survival): 123 % of control
- T/C (endpoint: median survival time, dose: 0.5 mg/kg/injection, schedule: Q08DX002 (ip), vehicle: saline with Tween-80, higher = longer survival): 102 % of control
- T/C (endpoint: median survival time, dose: 0.5 mg/kg/injection, schedule: Q08DX002 (ip), vehicle: saline, higher = longer survival): 92 % of control and 111 % of control and 123 % of control
- T/C (endpoint: median survival time, dose: 1.0 mg/kg/injection, schedule: Q08DX002 (ip), vehicle: saline with Tween-80, higher = longer survival): 119 % of control
- T/C (endpoint: median survival time, dose: 2.0 mg/kg/injection, schedule: Q08DX002 (ip), vehicle: saline with Tween-80, higher = longer survival): 115 % of control
- T/C (endpoint: median survival time, dose: 2.0 mg/kg/injection, schedule: Q08DX002 (ip), vehicle: saline, higher = longer survival): 155 % of control
- T/C (endpoint: median survival time, dose: 4.0 mg/kg/injection, schedule: Q08DX002 (ip), vehicle: saline, higher = longer survival): 93 % of control
- T/C (endpoint: median survival time, dose: 250.0 micrograms/kg/injection, schedule: Q01DX009 (ip), vehicle: saline, higher = longer survival): 172 % of control
- T/C (endpoint: median survival time, dose: 500.0 micrograms/kg/injection, schedule: Q01DX009 (ip), vehicle: saline, higher = longer survival): 110 % of control
- T/C (endpoint: median tumor weight (est.), dose: 0.12 mg/kg/injection, schedule: Q01DX009 (ip), vehicle: saline with Tween-80, higher = larger tumour): 95 % of control
- T/C (endpoint: median tumor weight (est.), dose: 0.25 mg/kg/injection, schedule: Q01DX009 (ip), vehicle: saline with Tween-80, higher = larger tumour): 81 % of control
- T/C (endpoint: median tumor weight (est.), dose: 0.5 mg/kg/injection, schedule: Q01DX009 (ip), vehicle: saline with Tween-80, higher = larger tumour): 58 % of control
- T/C (endpoint: median tumor weight (est.), dose: 0.5 mg/kg/injection, schedule: Q08DX002 (ip), vehicle: saline with Tween-80, higher = larger tumour): 97 % of control
- T/C (endpoint: median tumor weight (est.), dose: 1.0 mg/kg/injection, schedule: Q08DX002 (ip), vehicle: saline with Tween-80, higher = larger tumour): 86 % of control
- T/C (endpoint: median tumor weight (est.), dose: 2.0 mg/kg/injection, schedule: Q08DX002 (ip), vehicle: saline with Tween-80, higher = larger tumour): 49 % of control

Structure (SMILES): CC(=O)OC1CCC(NC(=O)N(CCF)N=O)CC1 (stereo not given)
- T/C (endpoint: median survival time, dose: 24.0 mg/kg/injection, schedule: Q01DX001 (ip), vehicle: saline with Tween-80, higher = longer survival): 100 % of control
- T/C (endpoint: median survival time, dose: 36.0 mg/kg/injection, schedule: Q01DX001 (ip), vehicle: saline with Tween-80, higher = longer survival): 102 % of control

Structure (SMILES): COc1cc(C[C@H]2c3cc(OC)c(OC)cc3CCN2C)c(Oc2cc3c(cc2OC)-c2c(OC)c(OC)cc4c2[C@H](C3)N(C)CC4)cc1OC
- T/C (endpoint: mean tumor weight, dose: 50.0 mg/kg/injection, schedule: Q01DX011 (ip), vehicle: carboxymethylcellulose (CMC), higher = larger tumour): 49 % of control
- T/C [1]: 26 % of control

Structure (SMILES): CC[n+]1ccc(Nc2ccc(NC(=O)c3ccc(Nc4cc[n+](CC)c5ccc(N)cc45)cc3)cc2)cc1
- T/C [2]: 86 % of control
- T/C (endpoint: mean tumor weight, dose: 1.0 mg/kg/injection, schedule: Q01DX011 (ip), vehicle: saline, higher = larger tumour): 107 % of control
- T/C (endpoint: mean tumor weight, dose: 2.0 mg/kg/injection, schedule: Q01DX011 (ip), vehicle: saline, higher = larger tumour): 73 % of control
- T/C (endpoint: mean tumor weight, dose: 4.0 mg/kg/injection, schedule: Q01DX011 (ip), vehicle: saline, higher = larger tumour): 33 % of control
